Each structure is given as a SMILES string.

For this experiment, the system named is production of CD69 by B lymphocytes in human whole blood. Nature of the experiment: CD69 Whole Blood Assay (CD69 Hu Blood FACS). Type of experiment: cell-based. To be noted: human whole blood activated with goat F(ab')2 anti-human IgM, 20 hours; CD69 on CD20 positive cells by FACS; Table 2. The text has this: A CD69 Whole Blood Assay can be conducted on Formula I compounds to determine the ability of compounds to inhibit the production of CD69 by B lymphocytes in human whole blood activated by crosslinking surface IgM with goat F(ab′)2 anti-human IgM (Example 907). CD69 is a type II C-type lectin involved in lymphocyte migration and cytokine secretion. CD69 expression represents one of the earliest available indicators of leukocyte activation and its rapid induction occurs through transcriptional activation (Vazquez et al (2009) Jour. of Immunology Published Oct. 19, 2009, doi:10.4049/jimmunol.0900839). Concentration-dependent inhibition of antigen receptor stimulation by selective Btk inhibitors induces cell surface expression of the lymphocyte activation marker CD69 (Honigberg et al (2010) Proc. Natl. Acad. Sci. 107(29):13075-13080). Thus, CD69 inhibition by selective Btk inhibitors may be correlated with therapeutic efficacy of certain B-cell disorders.
Human blood is obtained from healthy volunteers, with the following restrictions: 1 week drug-free, non-smokers. Blood (approximately 20 mls to test 8 compounds) is collected by venipuncture into Vacutainer® (Becton, Dickinson and Co.) tubes with sodium heparin.
Solutions of Formula I and II compounds at 10 mM in DMSO are diluted 1:10 in 100% DMSO, then are diluted by three-fold serial dilutions in 100% DMSO for a ten point dose-response curve. The compounds are further diluted 1:10 in PBS and then an aliquot of 5.5 μl of each compound is added in duplicate to a 2 ml 96-well plate; 5.5 μl of 10% DMSO in PBS is added as control and no-stimulus wells. Human whole blood —HWB (100 μl) is added to each well. After mixing the plates are incubated at 37° C., 5% CO2, 100% humidity for 30 minutes. Goat F(ab′)2 anti-human IgM (10 μl of a 500 μg/ml solution, 50 μg/ml final) is added to each well (except the no-stimulus wells) with mixing and the plates are incubated for an additional 20 hours. At the end of the 20 hour incubation, samples are incubated with fluorescent labeled antibodies for 30 minutes, at 37° C., 5% CO2, 100% humidity. Include induced control, unstained and single stains for compensation adjustments and initial voltage settings. Samples are then lysed with PharM Lyse™ (BD Biosciences Pharmingen) according to the manufacturer's instructions. Samples are then transferred to a 96 well plate suitable to be run on the BD Biosciences HTS 96 well system on the LSRII machine. Data acquired and Mean Fluorescence Intensity values were obtained using BD Biosciences DIVA Software. Results are initially analyzed by FACS analysis software (Flow Jo). […] The inhibitory concentration (IC50, IC70, IC90) values are calculated by Prism version 5, using a nonlinear regression curve fit.
On the technique in general: Flow cytometry measures light scatter and fluorescence of single cells or particles in a stream.
`Cc1cc(Nc2cc(-c3ccnc(-n4ncc5cc(C(C)(C)C)cc(F)c5c4=O)c3CO)cn(C)c2=O)nn1C` [Compound 119, 6-tert-butyl-2-[4-[5-[(1,5-dimethylpyrazol-3-yl)amino]-1-methyl-6-oxo-3-pyridyl]-3-(hydroxymethyl)-2-pyridyl]-8-fluoro-phthalazin-1-one] came in with a CD69 Hu Blood FACS (IC70) of 0.0247 µM.
In the case of `Cc1cnc(Nc2cc(-c3ccnc(-n4ncc5cc(C(C)(C)C)cc(F)c5c4=O)c3CO)cn(C)c2=O)s1` [Compound 120, 6-tert-butyl-8-fluoro-2-[3-(hydroxymethyl)-4-[1-methyl-5-[(5-methylthiazol-2-yl)amino]-6-oxo-3-pyridyl]-2-pyridyl]phthalazin-1-one] it was 0.139 µM; in that of `Cc1cc(Nc2cc(-c3ccnc(-n4ncc5cc(C(C)(C)C)cc(F)c5c4=O)c3CO)cn(C)c2=O)n[nH]1` [Compound 121, 6-tert-butyl-8-fluoro-2-[3-(hydroxymethyl)-4-[1-methyl-5-[(5-methyl-1H-pyrazol-3-yl)amino]-6-oxo-3-pyridyl]-2-pyridyl]phthalazin-1-one], 0.0793 µM; in that of `CCc1cc(Nc2cc(-c3ccnc(-n4ncc5cc(C(C)(C)C)cc(F)c5c4=O)c3CO)cn(C)c2=O)nn1C` [Compound 122, 6-tert-butyl-2-[4-[5-[(5-ethyl-1-methyl-pyrazol-3-yl)amino]-1-methyl-6-oxo-3-pyridyl]-3-(hydroxymethyl)-2-pyridyl]-8-fluoro-phthalazin-1-one], 0.0375 µM.
In the case of `CCn1cc(Nc2nc(-c3ccnc(-n4ncc5cc(C(C)(C)C)cc(F)c5c4=O)c3CO)cn(C)c2=O)cn1` [Compound 123, 6-tert-butyl-2-[4-[6-[(1-ethylpyrazol-4-yl)amino]-4-methyl-5-oxo-pyrazin-2-yl]-3-(hydroxymethyl)-2-pyridyl]-8-fluoro-phthalazin-1-one] it was 0.156 µM; in that of `CC(=O)N1CCn2nc(Nc3cc(-c4ccnc(-n5ncc6cc(C(C)(C)C)cc(F)c6c5=O)c4CO)cn(C)c3=O)cc2C1` [Compound 124, 2-[4-[5-[(5-acetyl-6,7-dihydro-4H-pyrazolo[1,5-a]pyrazin-2-yl)amino]-1-methyl-6-oxo-3-pyridyl]-3-(hydroxymethyl)-2-pyridyl]-6-tert-butyl-8-fluoro-phthalazin-1-one], 0.0415 µM; in that of `Cc1cnc(Nc2cc(-c3ccnc(-n4ncc5cc(C(C)(C)C)cc(F)c5c4=O)c3CO)cn(C)c2=O)o1` [Compound 125, 6-tert-butyl-8-fluoro-2-[3-(hydroxymethyl)-4-[1-methyl-5-[(5-methyloxazol-2-yl)amino]-6-oxo-3-pyridyl]-2-pyridyl]phthalazin-1-one], 0.521 µM.
The figure for `Cn1nc(Nc2cc(-c3ccnc(-n4ncc5cc(C(C)(C)C)cc(F)c5c4=O)c3CO)cn(C)c2=O)cc1C1CC1` [Compound 126, 6-tert-butyl-2-[4-[5-[(5-cyclopropyl-1-methyl-pyrazol-3-yl)amino]-1-methyl-6-oxo-3-pyridyl]-3-(hydroxymethyl)-2-pyridyl]-8-fluoro-phthalazin-1-one] is 0.0445 µM; for `Cc1cc(Nc2cc(-c3ccnc(-n4ncc5cc(C(C)(C)C)cc(F)c5c4=O)c3CO)nn(C)c2=O)nn1C` [Compound 127, 6-tert-butyl-2-[4-[5-[(1,5-dimethylpyrazol-3-yl)amino]-1-methyl-6-oxo-pyridazin-3-yl]-3-(hydroxymethyl)-2-pyridyl]-8-fluoro-phthalazin-1-one] it is 0.115 µM.
With `CN1CCn2nc(Nc3cc(-c4ccnc(-n5ncc6cc(C(C)(C)C)cc(F)c6c5=O)c4CO)cn(C)c3=O)cc2C1` [Compound 128, 6-tert-butyl-8-fluoro-2-[3-(hydroxymethyl)-4-[1-methyl-5-[(5-methyl-6,7-dihydro-4H-pyrazolo[1,5-a]pyrazin-2-yl)amino]-6-oxo-3-pyridyl]-2-pyridyl]phthalazin-1-one], the CD69 Hu Blood FACS (IC70) was found to be 0.0272 µM.
In the case of `Cc1cc(Nc2cc(-c3ccnc(-n4ncc5cc(C(C)(C)C)cc(F)c5c4=O)c3CO)cn(C)c2=O)no1` [Compound 129, 6-tert-butyl-8-fluoro-2-[3-(hydroxymethyl)-4-[1-methyl-5-[(5-methylisoxazol-3-yl)amino]-6-oxo-3-pyridyl]-2-pyridyl]phthalazin-1-one] it was 0.0488 µM; in that of `Cn1cnc(Nc2cc(-c3ccnc(-n4ncc5cc(C(C)(C)C)cc(F)c5c4=O)c3CO)cn(C)c2=O)c1` [Compound 130, 6-tert-butyl-8-fluoro-2-[3-(hydroxymethyl)-4-[1-methyl-5-[(1-methylimidazol-4-yl)amino]-6-oxo-3-pyridyl]-2-pyridyl]phthalazin-1-one], 0.152 µM; in that of `Cn1cc(-c2ccnc(-n3ncc4cc(C(C)(C)C)cc(F)c4c3=O)c2CO)cc(Nc2cc3n(n2)CCOC3)c1=O` [Compound 131, 6-tert-butyl-2-[4-[5-(6,7-dihydro-4H-pyrazolo[5,1-c][1,4]oxazin-2-ylamino)-1-methyl-6-oxo-3-pyridyl]-3-(hydroxymethyl)-2-pyridyl]-8-fluoro-phthalazin-1-one], 0.0171 µM.
In the case of `C[C@@H]1COCCN1C(=O)c1ccc(Nc2cc(-c3ccnc(-n4ncc5cc(C(C)(C)C)cc(F)c5c4=O)c3CO)cn(C)c2=O)nc1` [Compound 132, 6-tert-butyl-8-fluoro-2-[3-(hydroxymethyl)-4-[1-methyl-5-[[5-[(3R)-3-methylmorpholine-4-carbonyl]-2-pyridyl]amino]-6-oxo-3-pyridyl]-2-pyridyl]phthalazin-1-one] it was 0.014 µM.
In the case of `COCCN1CCn2nc(Nc3cc(-c4ccnc(-n5ncc6cc(C(C)(C)C)cc(F)c6c5=O)c4CO)cn(C)c3=O)cc2C1` [Compound 133, 6-tert-butyl-8-fluoro-2-[3-(hydroxymethyl)-4-[5-[[5-(2-methoxyethyl)-6,7-dihydro-4H-pyrazolo[1,5-a]pyrazin-2-yl]amino]-1-methyl-6-oxo-3-pyridyl]-2-pyridyl]phthalazin-1-one] it was 0.0145 µM; in that of `Cn1cc(-c2ccnc(-n3ncc4cc(C(C)(C)C)cc(F)c4c3=O)c2CO)cc(Nc2cc3n(n2)CCN(CC(F)(F)F)C3)c1=O` [Compound 134, 6-tert-butyl-8-fluoro-2-[3-(hydroxymethyl)-4-[1-methyl-6-oxo-5-[[5-(2,2,2-trifluoroethyl)-6,7-dihydro-4H-pyrazolo[1,5-a]pyrazin-2-yl]amino]-3-pyridyl]-2-pyridyl]phthalazin-1-one], 0.0216 µM; in that of `Cn1cc(-c2ccnc(-n3ncc4cc(C(C)(C)C)cc(F)c4c3=O)c2CO)cc(Nc2cc3n(n2)CCN(CC(F)F)C3)c1=O` [Compound 135, 6-tert-butyl-2-[4-[5-[[5-(2,2-difluoroethyl)-6,7-dihydro-4H-pyrazolo[1,5-a]pyrazin-2-yl]amino]-1-methyl-6-oxo-3-pyridyl]-3-(hydroxymethyl)-2-pyridyl]-8-fluoro-phthalazin-1-one], 0.02 µM.
`C[C@H]1COCCN1C(=O)c1ccc(Nc2cc(-c3ccnc(-n4ncc5cc(C(C)(C)C)cc(F)c5c4=O)c3CO)cn(C)c2=O)nc1` [Compound 136, 6-tert-butyl-8-fluoro-2-[3-(hydroxymethyl)-4-[1-methyl-5-[[5-[(3S)-3-methylmorpholine-4-carbonyl]-2-pyridyl]amino]-6-oxo-3-pyridyl]-2-pyridyl]phthalazin-1-one] returned a CD69 Hu Blood FACS (IC70) of 0.0145 µM.
`C[C@H]1CN(C2COC2)CCN1c1ccc(Nc2cc(-c3ccnc(-n4ncc5cc(C(C)(C)C)cc(F)c5c4=O)c3CO)c[nH]c2=O)nc1` [Compound 138, 6-tert-butyl-8-fluoro-2-[3-(hydroxymethyl)-4-[5-[[5-[(2S)-2-methyl-4-(oxetan-3-yl)piperazin-1-yl]-2-pyridyl]amino]-6-oxo-1H-pyridin-3-yl]-2-pyridyl]phthalazin-1-one] showed a CD69 Hu Blood FACS (IC70) of 0.0124 µM.
In the case of `Cn1cc(-c2ccnc(-n3ncc4cc(C(C)(C)C)cc(F)c4c3=O)c2CO)cc(Nc2cc3n(n2)CC(C)(C)OC3)c1=O` [Compound 139, 6-tert-butyl-2-[4-[5-[(6,6-dimethyl-4,7-dihydropyrazolo[5,1-c][1,4]oxazin-2-yl)amino]-1-methyl-6-oxo-3-pyridyl]-3-(hydroxymethyl)-2-pyridyl]-8-fluoro-phthalazin-1-one] it was 0.0616 µM.

(Values after patent US8669251B2, “8-fluorophthalazin-1(2H)-one compounds” (Genentech, Inc., priority 2011, dated 2014).)
